The results in this text go back to patent US20200046619A1, “Deodorizing Composition Comprising Zinc Neodecanoate” (GIVAUDAN SA, priority 2016, published 2020).

Data set [1] can be described thus: White marks: visible solid residue on black cloth after aerosol spraying. The format is physicochemical. The note with it: approximately 3 g aerosol (4% zinc neodecanoate, 12% cyclomethicone, 84% propellant) dispensed; compared with zinc ricinoleate and aluminium chlorohydrate aerosols. The procedure: Aerosols were prepared using the following three test formulations, respectively: • 4% zinc neodecanoate, 12% cyclomethicone, 84% propellant • 4% zinc ricinoleate, 12% cyclomethicone, 84% propellant • 10% aluminium chlorohydrate, 0.8% disteardimonium hectorite, 12% cyclomethicone, 76.2% propellant (propellant=isobutane/propane mix)
Several card templates were prepared where a large X-shaped hole was present in each template. Each template was then placed over a black piece of cloth. The aerosols were shaken well, and then approximately 3 g of one of the three aerosols was dispensed over each template hole. Several minutes were allowed for any propellant to evaporate and the presence of any visible solid residues was noted.

A short description of data set [2]: Solubility test of zinc salts in model aerosol base formulation. The note with it: 4% zinc salt, 12% cyclomethicone, 84% pentane; agitated several hours at room temperature, stood overnight. The format is physicochemical. An excerpt:
The solubility of several zinc salts was explored using the following model aerosol base formulation: • 4% zinc salt • 12% cyclomethicone • 84% pentane
(Pentane was used as a surrogate for isobutane/propane mix as it is easier to handle in a laboratory.)
Each salt and aerosol formulation was placed in a sealed glass vial that was agitated for several hours at room temperature. The resulting suspensions/solutions were allowed to stand overnight and any remaining solid matter present was noted.

Data set [3] concerns subject's axilla malodour. Description: Sensory test comparing zinc neodecanoate and zinc ricinoleate: perceived malodour intensity of axillae rated by trained panel. The format is in vivo, human. The note with it: for perceived malodour intensity: 0-100 line scale, 24 hours after application of 1.0 g aerosol (4% zinc salt, 12% cyclomethicone, 84% propellant) to axilla, 10 male subjects. The procedure: Aerosols were prepared using the following two test formulations, respectively: • 4% zinc neodecanoate, 12% cyclomethicone, 84% propellant • 4% zinc ricinoleate, 12% cyclomethicone, 84% propellant (propellant=isobutane/propane mix)
5 days prior to testing, the male subjects substituted their normal body wash with an unperfumed product (Sanex 0% Bodywash) and were asked to only use a specific deodorant supplied (Lynx Attract for Him).
On the morning before the test, the male subjects were asked to shower using an unperfumed shower gel provided and not use any antiperspirant product or apply any other fragranced products.
Subjects reported to a panel suite in the morning in two groups for test product application.
The administrator applied 1.0 g of each product to each subject's axilla. Each subject wore both of the test formulations (one on each axilla region). The manner in which each test formulation was applied (left or right axilla) was randomised. Each of a subject's axilla was then coded with a random code number.
The subjects were asked not to shower until after the test had been completed the next day. The subjects were also provided with a list of rules, by which they had to abide for the duration of the test. The rules included no swimming and no gym activity between test formulation application and assessment.
The subjects' axillae were thereafter tested by sensory panellists. The members of the sensory panels had been selected on a basis of their olfactory sensory acuity and had thereafter received training for a period of 4-6 months. […]
The sensory panellists were asked to rate the perceived malodour intensity for each of the subject's axilla using a 0-100 line scale. The order of samples assessed was pre-determined using a balanced randomisation. The axillae were assessed in a sequential monadic way. […]
The subjects were separated into two groups to be assessed by the panellists and each group was assessed by 22 panellists.
The data was analysed using an analysis of variance and multiple comparison test with a confidence level of 95%.

In the case of zinc neodecanoate, the “visible solid residue on black cloth” value in data set [1] is “did not leave a powdered residue”. Moreover, in data set [2], the “remaining solid matter present (solubility)” value was “without any solid present”. Also, in data set [3], the perceived malodour intensity is recorded as 12.1 (+/−0.8). Also, the “malodour intensity compared with underarms treated with zinc ricinoleate” value in data set [3] (analysis of variance and multiple comparison test, confidence level 95%, 24 hours after application) is “significantly lower malodour intensity”.
As for zinc ricinoleate [reference compound], the perceived malodour intensity in data set [3] is listed as 14.0 (+/−0.8).
